# According to patent US9737603B1, “Alcohol-based local anesthesia and associated use thereof” (priority 2014, dated 2017):
# What was measured:
# [1] = test system: skin tissue; conditions: topical; cited from earlier work
# [2] = Solution stability (precipitation of benzocaine); format: physicochemical; conditions: liquid embodiment, isopropyl alcohol 70-75% (v)
# Description: In a non-limiting exemplary embodiment, the alcohol-based topical anesthesia chemical composition 10 may be stored in a tightly sealed container at 25 C or a temperature range of 20 C to 40 C. Temperatures below 15 C may cause the benzocaine to precipitate.
# However, beyond 16% (w/v) of benzocaine, the solution stability becomes an issue due to the precipitation of benzocaine; and menthol can be effectively utilized in the range 1% to 3% (w/v).
# [3] = test system: skin tissue; experiment: Topical anesthesia / analgesia after application to skin; format: in vivo; conditions: 1% (w/v) menthol, preliminary work
# Description: The alcohol-based topical anesthesia chemical composition 10 also has a skin analgesic, menthol 1% (w/v).
smiles,measurement,setting,value
C[C@]12CCC(=O)C=C1CC[C@@H]1[C@@H]2[C@@H](O)C[C@@]2(C)[C@H]1CC[C@]2(O)C(=O)CO [Hydrocortisone],analgesia (alternatives to menthol),[1],does not provide immediate analgesia
CCOC(=O)c1ccc(N)cc1 [benzocaine],benzocaine concentration beyond which solution stability becomes an issue due to precipitation of benzocaine,[2],> 16 % (w/v)
CC1CCC(C(C)C)C(O)C1 (stereo not drawn) [menthol],counterirritant analgesic property,[3],safe yet effective
